Reference: paper PMC7318222, “A Family of Water‐Immiscible, Dipolar Aprotic, Diamide Solvents from Succinic Acid” (Chemsuschem, 2020)

Legend:
[1] = test system: p53; assay: p53 CALUX assay; format: cell-based, human; parameters: key: –: no effect observed up to the highest test concentration; settings: cell signaling pathway assay, 24 h exposure
Description: Six of the CALUX assays (TCF through p53) detect activation of several cellular signaling pathways, which are indicative of general stress and acute toxicity, but also a range of more specific types of toxicity, including reproductive toxicity. […]
DCM ≥99.5%, chloroform ≥99.5%, DMSO ≥99.0% were purchased from VWR. […]
(§1) Polyarylethersulfone of 55,000 Da were obtained from INGE.BASF, Germany. The CALUX cell lines have been described previously.[1] They are based on human U2-OS cells (ATCC, HTB-96) stably transfected with an expression construct for the full-length human receptor under investigation, and a reporter construct consisting of multimerized responsive elements for the cognate receptor coupled to a minimal promoter element (TATA) and a luciferase gene. Cells were maintained as described previously,[2] using cell culture media and supplements from Fisher Scientific as described in the experimental procedures section. […]
(§2) In vitro reporter gene assays
(§3) The automated CALUX assays were carried out similarly as described earlier,[12] with some adaptations. In brief, the assay was performed in CO2 independent medium (Fisher Scientific, […]
(§4) supplement (Fisher Scientific, 11574466), 10 U/mL penicillin and 10 µg/mL streptomycin. A cell suspension in assay medium was made of 1 × 10^5cells/mL, and white 384-wells plates were seeded with 30 µl cell suspension/well. After 24 h, exposure medium was prepared. A dilution series in 0.5log unit increments of each test compound (in DMSO) was added to a 96-wells plate containing assay medium (2% v/v). Of this exposure mixture, 30 µl was added to the assay plates containing the CALUX cells, resulting in a final DMSO concentration of 1%. Additionally, DMSO blanks and a full dose response curve of the relevant reference compound were included on each plate. All samples were tested in triplicate. The preparation of the compound dilution series as well as the exposure of the cells were performed on a Hamilton StarLET liquid handling robot coupled to a Cytomat incubator.
(§5) Directly after exposure, plates were sealed with non-breathing plate seals (Plate sealer, easy seal transparent; Greiner-Bio-One, 676001). After 24 h the exposure medium was removed using an EL406 washer-dispenser (BioTek) and 10 µl/well triton lysisbuffer was added by the EL406.
(§6) Subsequently, the luciferase signal was measured in a luminometer (InfinitePro coupled to a Connect Stacker, both TECAN). In order to be able to detect receptor antagonism, several assays were also performed in antagonistic mode. The assay procedure was as described above, with the only exception that the EC50 concentration of the reference agonist was present during the exposure.
The luminometer data was analysed as follows; the average of the triplicate wells was determined, and the average blank (DMSO) value was subtracted. For receptor-based assays the maximum response elicited by the reference compound was set to 100% (full receptor- or pathway activation), and the other values were scaled accordingly. GraphPad Prism was used to fit a sigmoidal curve through the data (four parameters, variable slope). […] For antagonist- and cytotoxicity experiments, PC20 values were determined instead, which was defined as the concentration where the test compound causes a 20% decrease in the basal signal, which was […]
(§7) curve, the signal induction above background (DMSO) was determined, and the concentration where the compound elicited a 1.5-fold increase above background was used as LEC.

[2] = shake flask; GC analysis of both layers with diglyme internal standard (SI); settings: not told
[3] = test system: human U2-OS cells; assay: CALUX cytotoxicity assay; format: cell-based; settings: for LEC cytotoxicity: PC20, 24 h exposure
Description: as §1, with “DCM ≥99.5%, chloroform ≥99.5%, DMSO ≥99.0% were purchased from VWR. N,N-diethyl-4-nitroaniline ≥98.0% was purchased from Alfa Aeser. Cyrene was supplied by Circa group. N-butylpyrrolidinone was supplied by Eastman chemicals. N,N-dimethylformamide 99.9% and N,N-dimethylacetamide 99.9% were purchased from Fischer. The flakes of Ultrason® E3020 P Polyarylethersulfone” for “Polyarylethersulfone”
as §2, §3, §4, §5, §6
The luminometer data was analysed as follows; the average of the triplicate wells was determined, and the average blank (DMSO) value was subtracted. For receptor-based assays the maximum response elicited by the reference compound was set to 100% (full receptor- or pathway activation), and the other values were scaled accordingly. GraphPad Prism was used to fit a sigmoidal curve through the data (four parameters, variable slope). The PC10 concentration was reported as the lowest effect concentration (LEC), which is defined as the concentration where the response elicited by the test compound equals 10% of the maximum response of the reference compound. For antagonist- and cytotoxicity experiments, PC20 values were determined instead, which was defined as the concentration where the test compound causes a 20% decrease in the basal signal, which was […]
as §7

| SMILES | LEC p53 [1] | log partition 1-octanol / water [2] | LEC cytotoxicity [3] | cytotoxicity lowest effect concentration (LEC) [3] |
| --- | --- | --- | --- | --- |
| CCCCN(CC)C(=O)CCC(=O)N(CC)CCCC [EBSA, N,N′‐diethyl‐N,N′‐dibutylsuccindiamide] | – | 2.72 log10 of concentration ratio (GC peak-area ratio) | −3.1 Log M |  |
| CCCCN(C)C(=O)CCC(=O)N(C)CCCC [MBSA, N,N′‐dimethyl‐N,N′‐dibutylsuccindiamide] | – | 1.65 log10 of concentration ratio (GC peak-area ratio) | −2.3 Log M |  |
| CCCCN1CCCC1=O [NBP, N‐Butylpyrrolidinone, reference compound] | – | 0.99 log10 of concentration ratio (GC peak-area ratio) | −2.1 Log M |  |
| CCCCN(CCCC)C(=O)CCC(=O)N(CCCC)CCCC [TBSA, N,N,N′,N′‐tetrabutylsuccindiamide] | – | 3.77 log10 of concentration ratio (GC peak-area ratio) | −3.4 Log M |  |
| CN1CCCC1=O [NMP, N‐methyl‐2‐pyrrolidone, reference compound] | – |  | −1.4 Log M | 40 mM |
